The record followed here is patent US9656990B2, “Cathepsin cysteine protease inhibitors” (Merck Sharp & Dohme Corp., priority 2014, dated 2017).

The target in one assay is T1, human cathepsin F (Homo sapiens, UniProt Q9UBX1).
T1 sequence (Q9UBX1 271-484): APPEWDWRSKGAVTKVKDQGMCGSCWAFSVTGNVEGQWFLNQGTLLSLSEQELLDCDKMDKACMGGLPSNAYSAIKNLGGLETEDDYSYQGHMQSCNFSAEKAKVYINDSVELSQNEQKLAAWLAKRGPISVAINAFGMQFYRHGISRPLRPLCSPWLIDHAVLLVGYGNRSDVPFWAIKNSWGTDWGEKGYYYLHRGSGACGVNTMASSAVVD
The experiment in a line: Cathepsin F Assay. Format: biochemical. The settings on record: IP from dose response curve; Z-Phe-Arg-AMC substrate, pH 5.5; read-out: hCat F (IP (nM)). The gist of the method: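 Human cathepsin F (10 nM) preincubated 15 min at room temperature with compounds in 50 mM MES pH 5.5, 2.5 mM EDTA, 2.5 mM DTT, 10% DMSO. Z-Phe-Arg-AMC (8 μM) added; AMC release read by fluorescence (Ex 360/Em 460 nm) over 20 min, inhibition fit to dose-response model.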

Another assay addresses human cathepsin K (UniProt P43236, Y175D/V274L, species not given). The experiment in a line: Cathepsin K Assay. The settings on record: IP from dose response curve; Z-Leu-Arg-AMC substrate, pH 5.5; read-out: hrbCat K (IP (nM)). The class given is biochemical.

Regarding `CN=S1(=O)CCN(c2ccc(-c3cn(-c4ccc(F)cn4)nc3[C@@H]3CC[C@H](F)C[C@H]3C(=O)N[C@@H](C)C#N)cc2)CC1` [Example 38, (1R,2R,5S)-N-((S)-1-cyanoethyl)-5-fluoro-2-(1-(5-fluoropyridin-2-yl)-4-(4-(1-(methylimino)-1-oxidothiomorpholino)phenyl)-1H-pyrazol-3-yl)cyclohexanecarboxamide], the IC50 on human cathepsin F amounted to 855 nM; on human cathepsin K, 1.14 nM.
Consider `Cc1c(-c2ccc(N3CCS(=O)(=O)CC3)cc2)c([C@@H]2CCCC[C@H]2C(=O)NC2(C#N)CC2)nn1-c1ncccc1F` [Example 41, (1R,2R)-N-(1-cyanocyclopropyl)-2-(4-(4-(1,1-dioxidothiomorpholino)phen-yl)-1-(3-fluoropyridin-2-yl)-5-methyl-1H-pyrazol-3-yl)cyclohexanecarboxamide], for which the IC50 came out at 5390 nM at human cathepsin F and 8.5 nM at human cathepsin K.
With `Cc1c(-c2ccc(N3CCS(=O)(=O)CC3)cc2)c([C@@H]2CCCC[C@H]2C(=O)N[C@@H](C)C#N)nn1-c1ncccc1F` [Example 42, (1R,2R)-N-((S)-1-cyanoethyl)-2-(4-(4-(1,1-dioxidothiomorpholino)phen-yl)-1-(3-fluoropyridin-2-yl)-5-methyl-1H-pyrazol-3-yl)cyclohexanecarboxamide], the IC50 was 1990 nM on human cathepsin F and 3.62 nM at human cathepsin K.
As for `Cc1c(-c2ccc(N3CCS(=O)(=O)CC3)cc2)c([C@@H]2CCCC[C@H]2C(=O)N[C@H](C#N)C(C)C)nn1-c1ncccc1F` [Example 43, (1R,2R)-N-((S)-1-cyano-2-methylpropyl)-2-(4-(4-(1,1-dioxidothiomorpholino)phen-yl)-1-(3-fluoropyridin-2-yl)-5-methyl-1H-pyrazol-3-yl)cyclohexanecarboxamide], the IC50 was determined as 4550 nM on human cathepsin F and 12.1 nM at human cathepsin K.
For the compound `CN=S1(=O)CCN(c2ccc(-c3c([C@@H]4CCCC[C@H]4C(=O)NC4(C#N)CC4)nn(-c4ncccc4F)c3C)cc2)CC1` [Example 44, (1R,2R)-N-(1-cyanocyclopropyl)-2-(1-(3-fluoropyridin-2-yl)-5-methyl-4-(4-(1-(methylimino)-1-oxidothiomorpholino)phenyl)-1H-pyrazol-3-yl)cyclohexanecarboxamide], the IC50 on human cathepsin F was determined as 8840 nM; on human cathepsin K, 13.9 nM.
Turning to `C[C@@H](C#N)NC(=O)[C@@H]1CCC(F)(F)C[C@H]1c1nn(-c2ncccc2F)cc1-c1ccc(N2CCS(=N)(=O)CC2)cc1` [Example 45, (1R,2R)-N-((S)-1-cyanoethyl)-4,4-difluoro-2-(1-(3-fluoropyridin-2-yl)-4-(4-(1-imino-1-oxidothiomorpholino)phenyl)-1H-pyrazol-3-yl)cyclohexanecarboxamide], the IC50 at human cathepsin F stood at 5480 nM; at human cathepsin K, 6.61 nM.
Consider `CN=S1(=O)CCN(c2ccc(-c3cn(-c4ncccc4F)nc3[C@@H]3CC(F)(F)CC[C@H]3C(=O)N[C@@H](C)C#N)cc2)CC1` [Example 46, (1R,2R)-N-((S)-1-cyanoethyl)-4,4-difluoro-2-(1-(3-fluoropyridin-2-yl)-4-(4-(1-(methylimino)-1-oxidothiomorpholino)phenyl)-1H-pyrazol-3-yl)cyclohexanecarboxamide], for which the IC50 turned out to be 6620 nM at human cathepsin F and 5.78 nM at human cathepsin K.
Taken in the same sequence, the figures for `CN=S1(=O)CCN(c2ccc(-c3c([C@@H]4CCCC[C@H]4C(=O)N[C@@H](C)C#N)nn(-c4ncccc4F)c3C)cc2)CC1` [Example 47, (1R,2R)-N-((S)-1-cyanoethyl)-2-(1-(3-fluoropyridin-2-yl)-5-methyl-4-(4-(1-(methylimino)-1-oxidothiomorpholino)phenyl)-1H-pyrazol-3-yl)cyclohexanecarboxamide] were 3240 nM and 5.48 nM.
On the same counts, the results for `CN=S1(=O)CCN(c2ccc(-c3c([C@@H]4CCCC[C@H]4C(=O)N[C@H](C#N)C(C)C)nn(-c4ncccc4F)c3C)cc2)CC1` [Example 48, (1R,2R)-N-((S)-1-cyano-2-methylpropyl)-2-(1-(3-fluoropyridin-2-yl)-5-methyl-4-(4-(1-(methylimino)-1-oxidothiomorpholino)phenyl)-1H-pyrazol-3-yl)cyclohexanecarboxamide] are 7350 nM and 19.2 nM.
Taken in the same sequence, the figures for `Cc1c(-c2ccc(N3CCS(=N)(=O)CC3)cc2)c([C@@H]2CCCC[C@H]2C(=O)NC2(C#N)CC2)nn1-c1ncccc1F` [Example 50, (1R,2R)-N-(1-cyanocyclopropyl)-2-(1-(3-fluoropyridin-2-yl)-4-(4-(1-imino-1-oxidothiomorpholino)phenyl)-5-methyl-1H-pyrazol-3-yl)cyclohexanecarboxamide] were 7790 nM and 14 nM.
With `Cc1c(-c2ccc(N3CCS(=N)(=O)CC3)cc2)c([C@@H]2CCCC[C@H]2C(=O)N[C@@H](C)C#N)nn1-c1ncccc1F` [Example 51, (1R,2R)-N-((S)-1-cyanoethyl)-2-(1-(3-fluoropyridin-2-yl)-4-(4-(1-imino-1-oxidothiomorpholino)phenyl)-5-methyl-1H-pyrazol-3-yl)cyclohexanecarboxamide], the values for the IC50 on human cathepsin F and at human cathepsin K were 3870 nM and 7.41 nM, respectively.
Turning to `Cc1c(-c2ccc(N3CCS(=N)(=O)CC3)cc2)c([C@@H]2CCCC[C@H]2C(=O)N[C@H](C#N)C(C)C)nn1-c1ncccc1F` [Example 52, (1R,2R)-N-((S)-1-cyano-2-methylpropyl)-2-(1-(3-fluoropyridin-2-yl)-4-(4-(1-imino-1-oxidothiomorpholino)phenyl)-5-methyl-1H-pyrazol-3-yl)cyclohexanecarboxamide], the IC50 on human cathepsin F turned out to be 9320 nM; on human cathepsin K, 22.5 nM.
Take `C[C@@H](C#N)NC(=O)[C@@H]1C[C@@H](F)CC[C@H]1c1nn(-c2ncccc2F)cc1-c1ccc(N2CCS(=N)(=O)CC2)cc1` [Example 57, (1R,2R,5S)-N-((S)-1-cyanoethyl)-5-fluoro-2-(1-(3-fluoropyridin-2-yl)-4-(4-(1-imino-1-oxidothiomorpholino)phenyl)-1H-pyrazol-3-yl)cyclohexanecarboxamide]: the values for the IC50 on human cathepsin F and at human cathepsin K were 7770 nM and 8.3 nM, respectively.
On to `N#CC1(NC(=O)[C@@H]2C[C@@H](F)CC[C@H]2c2nn(-c3ccc(F)cn3)cc2-c2ccc(N3CCS(=N)(=O)CC3)cc2)CC1` [Example 59, (1R,2R,5S)-N-(1-cyanocyclopropyl)-5-fluoro-2-(1-(5-fluoropyridin-2-yl)-4-(4-(1-imino-1-oxidothiomorpholino)phenyl)-1H-pyrazol-3-yl)cyclohexanecarboxamide], for which the IC50 at human cathepsin F is 2460 nM; on human cathepsin K, 1.29 nM.
As to `C[C@@H](C#N)NC(=O)[C@@H]1C[C@@H](F)CC[C@H]1c1nn(-c2ccc(F)cn2)cc1-c1ccc(N2CCS(=N)(=O)CC2)cc1` [Example 60, (1R,2R,5S)-N-((S)-1-cyanoethyl)-5-fluoro-2-(1-(5-fluoropyridin-2-yl)-4-(4-(1-imino-1-oxidothiomorpholino)phenyl)-1H-pyrazol-3-yl)cyclohexanecarboxamide], the IC50 at human cathepsin F stood at 674 nM; at human cathepsin K, 1.43 nM.
Turning to `C[C@@H](C#N)NC(=O)[C@@H]1CC(F)(F)CC[C@H]1c1nn(-c2ccc(F)cc2)c(CO)c1-c1ccc(N2CCS(=O)(=O)CC2)cc1` [Example 61, (1R,2R)-N-((S)-1-cyanoethyl)-2-(4-(4-(1,1-dioxidothiomorpholino)phen-yl)-1-(4-fluorophenyl)-5-(hydroxymethyl)-1H-pyrazol-3-yl)-5,5-difluorocyclohexanecarbox-amide], the IC50 on human cathepsin F was found to be 121 nM; at human cathepsin K it was 1.61 nM.
As to `N#CC1(NC(=O)[C@@H]2CC(F)(F)CC[C@H]2c2nn(-c3ccc(F)cn3)c(CF)c2-c2ccc(N3CCS(=O)(=O)CC3)cc2)CC1` [Example 62, (1R,2R)-N-(1-cyanocyclopropyl)-2-(4-(4-(1,1-dioxidothiomorpholino)phen-yl)-5-(fluoromethyl)-1-(5-fluoropyridin-2-yl)-1H-pyrazol-3-yl)-5,5-difluorocyclohexanecarbox-amide], the IC50 on human cathepsin F was 151 nM; at human cathepsin K, 1.33 nM.
With `CC(C)[C@@H](C#N)NC(=O)[C@@H]1CC(F)(F)CC[C@H]1c1nn(-c2ccc(F)cc2)c(CO)c1-c1ccc(N2CCS(=O)(=O)CC2)cc1` [Example 63, (1R,2R)-N-((S)-1-cyano-2-methylpropyl)-2-(4-(4-(1,1-dioxidothiomorpholino)phen-yl)-1-(4-fluorophenyl)-5-(hydroxymethyl)-1H-pyrazol-3-yl)-5,5-difluorocyclohexanecarbox-amide], the IC50 on human cathepsin F stood at 98 nM; at human cathepsin K it was 1.98 nM.
In the case of `C[C@@H](C#N)NC(=O)[C@@H]1CCCC[C@H]1c1nn(-c2ccc(F)cc2)c(CO)c1-c1ccc(N2CCS(=O)(=O)CC2)cc1` [Example 64, (1R,2R)-N-((S)-1-cyanoethyl)-2-(4-(4-(1,1-dioxidothiomorpholino)phen-yl)-1-(4-fluorophenyl)-5-(hydroxymethyl)-1H-pyrazol-3-yl)cyclohexanecarboxamide], the IC50 on human cathepsin F amounted to 565 nM; at human cathepsin K, 4.61 nM.
As to `CC(C)[C@@H](C#N)NC(=O)[C@@H]1CCCC[C@H]1c1nn(-c2ccc(F)cc2)c(CO)c1-c1ccc(N2CCS(=O)(=O)CC2)cc1` [Example 65, (1R,2R)-N-((S)-1-cyano-2-methylpropyl)-2-(4-(4-(1,1-dioxidothiomorpholino)phen-yl)-1-(4-fluorophenyl)-5-(hydroxymethyl)-1H-pyrazol-3-yl)cyclohexanecarboxamide], the IC50 at human cathepsin F was determined as 868 nM; at human cathepsin K it was 11 nM.
